For 5 compounds, IC50 results are on record in patent publication US8962648B2, “Tricyclic compounds and PBK inhibitors containing the same” (OncoTherapy Science, Inc., priority 2010, dated 2015).

SMILES strings stand for the structures. Where a name gives a salt, the structure may show the parent alone.

One experiment has as its system 22Rv1 cells. Put plainly: Cell-based assay, cellular growth (Cell Counting Kit-8, 72 hours). To be noted: Homo sapiens. For orientation: Tetrazolium assays rely on reduction of a dye to a coloured formazan, in cell work by metabolically active cells.
The subject of a further experiment is HT-1197 cells. As to the kind of experiment: Cell-based assay, cellular growth (Cell Counting Kit-8, 72 hours), PBK-negative control cells. To be noted: Homo sapiens, HT1197, 72 h. On the procedure: (§1) 100 micro-L of cell suspension was seeded onto 96-well microtiter plate (ViewPlate-96FTC, PerkinElmer). […] Cellular growth was determined using Cell Counting Kit-8 (DOJINDO) at 72 hours after the exposure of the candidate inhibitors. […] Accurate IC50 values were calculated as described previously.

Another experiment has as its system BT-549 cells. Put plainly: Cell-based assay, cellular growth (Cell Counting Kit-8, 72 hours). To be noted: Homo sapiens, BT549 cells. On the procedure:
as §1

The subject of a further experiment is T47D cells. The experiment is described as above. To be noted: Homo sapiens, T47D, 72 h. On the procedure: as §1
Another experiment has as its system A549 cells. The experiment is described as above. To be noted: Homo sapiens, A549, 72 h. A digest of the protocol: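 Following seeding into 96-well microtiter plates, the cells receive candidate inhibitors, and cellular growth is quantified at the end of the exposure period. An IC50 is computed for each compound.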
For another experiment, the target named is PBK (Homo sapiens (Human), UniProt Q96KB5). Put plainly: Kinase assay (IMAP fluorescence polarization, FITC-labeled histone H3 peptide). The format is biochemical. The following applies: PBK 0.8 ng/micro-L, 50 micro-M ATP, 100 nM FITC-labeled histone H3 peptide, room temperature 1 hour. A digest of the protocol:
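PBK at 0.8 ng/µL with 100 nM FITC-histone H3 peptide and 50 µM ATP in HEPES pH 7.4, 0.3 mM MgCl2, 2 mM DTT, reacted 1 h at room temperature. Phosphorylation read by IMAP fluorescence polarization; IC50 from four-parameter fit.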
A general note: In fluorescence polarisation assays a small probe gives low polarisation when free and higher when bound to something large.

Chain of PBK (Q96KB5 whole entry): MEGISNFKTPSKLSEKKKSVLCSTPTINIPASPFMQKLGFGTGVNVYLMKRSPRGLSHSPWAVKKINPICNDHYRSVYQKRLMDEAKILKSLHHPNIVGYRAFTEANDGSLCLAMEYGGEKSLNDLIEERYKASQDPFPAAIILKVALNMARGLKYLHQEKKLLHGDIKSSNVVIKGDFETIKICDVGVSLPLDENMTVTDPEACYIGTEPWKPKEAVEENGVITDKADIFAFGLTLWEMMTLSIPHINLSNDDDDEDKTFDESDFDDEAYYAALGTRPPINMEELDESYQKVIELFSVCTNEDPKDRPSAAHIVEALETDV

As for `C[C@@H](CN)c1ccc(-c2c(O)ccc3[nH]c(=O)c4sccc4c23)cc1` [Compound 1160, (R)-9-(4-(1-aminopropan-2-yl)phenyl)-8-hydroxythieno[2,3-c]quinolin-4(5H)-one hydrochloride], the IC50 in the experiment with 22Rv1 cells was 69 nM; in the experiment on HT-1197 cells, 230 nM; in the experiment on BT-549 cells, 54 nM; in the experiment with T47D cells it was 57 nM; with A549 cells it was 56 nM; on PBK, 0.64 nM.
In the case of `Cc1cc(O)c(-c2ccc([C@@H](C)CN)cc2)c2c1[nH]c(=O)c1sccc12` [Compound 1169, (R)-9-(4-(1-aminopropan-2-yl)phenyl)-8-hydroxy-6-methylthieno[2,3-c]quinolin-4(5H)-one hydrobromide], the 50% inhibitory concentration (IC50) with 22Rv1 cells is 22 nM; in the experiment on BT-549 cells, 13 nM; with T47D cells, 24 nM; with A549 cells it was 23 nM.
Regarding `C[C@@H](CN(C)C)c1ccc(-c2c(O)cc(Cl)c3[nH]c(=O)c4sccc4c23)cc1` [Compound 1347, (R)-6-chloro-9-(4-(1-(dimethylamino)propan-2-yl)phenyl)-8-hydroxythieno [2,3-c]quinolin-4(5H)-one hydrochloride], the IC50 was determined as 260 nM with HT-1197 cells; 110 nM in the experiment with BT-549 cells; 260 nM with T47D cells; 100 nM with A549 cells; 43 nM at PBK.
As for `CC[C@@H](CN)c1ccc(-c2c(O)cc(C)c3[nH]c(=O)c4sccc4c23)cc1` [Compound 1352, (R)-9-(4-(1-aminobutan-2-yl)phenyl)-8-hydroxy-6-methylthieno[2,3-c]quinolin-4(5H)-one hydrochloride], the IC50 in the experiment on HT-1197 cells came to 340 nM; with BT-549 cells it was 71 nM; in the experiment with T47D cells, 99 nM; in the experiment with A549 cells it was 55 nM; against PBK, 40 nM.
Take `CNCCc1ccc(-c2c(O)cc(C)c3[nH]c(=O)c4sccc4c23)cc1` [Compound 1364, 8-hydroxy-6-methyl-9-(4-(2-(methylamino)ethyl)phenyl)thieno[2,3-c]quinolin-4(5H)-one hydrochloride]: the IC50 stood at 660 nM in the experiment on HT-1197 cells; 260 nM in the experiment on BT-549 cells; 300 nM in the experiment with T47D cells; 270 nM with A549 cells; 55 nM against PBK.

Usually IC50 stands for the point on the concentration scale where inhibition reaches its midpoint. A high value points to lower potency.
